Tests used:
[1] = Protocol: Aliquots of the PBS only curve were quenched at time zero to be used as stability controls and calibration standards. Following centrifugation, samples were analyzed by LC-MS/MS bioanalysis. Back-calculated concentrations using the assay PBS curve were used for binding and stability calculations.
pupil diameter = experiment: In vivo rabbit miosis model; parameters: species or system Dutch Belted rabbits; details: for miotic efficacy compared with brimonidine: single topical dose, low-light conditions, FIG. 4 to FIG. 7
Protocol: Female Dutch Belted rabbits (Covance, Princeton, New Jersey) weighing between 2-4 kg were used for these studies. […] For topical dosing, eye drops (volume=35 μl) were instilled into the lower conjunctival sac of the test eye.
Pupil diameter was measured in both the treated and untreated eye with an Optistick to the nearest 0.5 mm. […]

eye redness = experiment: Treatment of red eye (patient cases); type: in vivo, human; details: person
From the text: A person complains about eye redness caused by seasonal allergies. A physician identifies the patient as having an OSH score of +2, and instructs them to administer to both of their eyes a composition comprising a compound of Formula I once or twice a day. Within the first day of administering the compound of Formula I, the patient reports decreased eye redness despite having on-going seasonal allergies, and their physician identifies the patient as having an OSH score of +0.5.
A person without any underlying health problems notices their eyes are red, making them appear tired at work. They administer to both of their eyes a composition comprising a compound of Formula I in order to increase the whiteness of their eyes for cosmetic reasons.
A person complains to their doctor that they suffer from red eyes due to minor eye irritations. The doctor prescribes a composition comprising a compound of Formula I and instructs them to administer the composition once or twice a day. The doctor also tells the person that many other marketed compositions for reducing eye redness are associated with side effects such as rebound hyperemia, dependency, and/or tachyphylaxis and that the person should report any such side effects.
Upon recommendation from a friend, they ask their doctor about possibly switching to a composition comprising the compound of Formula I since their friend told them that it works faster than brimonidine.

pupil size = details: brimonidine tartrate ophthalmic solution 0.2%, presbyopic patients, different lighting conditions (McDonald II et al.); cited from earlier work
ocular hyperemia = experiment: Reducing eye redness in rabbits (naive and povidone iodine induced hyperemia model); type: in vivo, New Zealand White rabbits
Protocol: In this study, Applicant evaluated the compound of Formula I on ocular hyperemia (i.e., eye redness).
The modified Hackett-McDonald Scoring scale (Table 1) was used to assess hyperemia, discomfort, conjunctival swelling and discharge. Ocular imaging was conducted via a Haag-Streit B slit lamp. Effects of these compounds were first evaluated in naïve animals following baseline measurements and then assessed in a povidone iodine induced hyperemia model.
Animals: This study was conducted in female New Zealand White rabbits (Covance) weighing approximately 2-4 kg upon arrival.
This effect can be utilized as a transient hyperemia model to evaluate for potential blanching of blood vessels and rapid reduction of hyperemia. The ocular surface was anesthetized with drops of 0.5% proparacaine. The eye was then irrigated with 5% povidone iodine ophthalmic solution and left on the ocular surface for at least 2 minutes to ensure the solution completely covers the eye. The periocular region was also wiped with povidone solution. Following 2 minutes post-irrigation, the eye was rinsed with sterile saline until the rinsed solution runs clear. Hyperemia at baseline and post ocular topical treatment was assessed via the modified Hackett-McDonald Scoring Scale shown in Table 1 above.
Ocular imaging: A Haag-Streit BP 900 slitlamp was used to evaluate the anterior segment of the eye (e.g., corneal integrity and cells in the aqueous humor). Pupils were dilated by applying drops of 1% cyclopentolate and 10% phenylephrine to the ocular surface. Ocular imaging was conducted in awake and/or anesthetized animals (7.5-10 mg/kg Ketamine/1-10 mg/kg Xylazine).

[2] = after 6 hours, 0.1% w:v, FIG. 7

In the case of `Brc1c(NC2=NCCN2)ccc2nccnc12` [Compound 4, brimonidine, reference compound], the “melanin binding (in words)” value [1] is reported as “much more significant binding”, the “animals with greater than 2.5 mm reduction in pupil size from baseline” value (pupil diameter; a half hour after dosing, 0.1% w:v, FIG. 7) is reported as “much less than half” and the “animals with greater than 2.5 mm reduction in pupil size from baseline” value (pupil diameter; [2]) is reported as “virtually none”. The “onset of eye redness reduction” value (eye redness) was “takes effect in less than a minute” and the average pupil size (pupil size) was 3.4 mm.

For `Brc1c(N=C2NCCN2)ccc2[nH]cnc12` [Compound 3, reference compound], the “miotic efficacy compared with brimonidine” value (pupil diameter) was “much less than brimonidine”.

With `CCc1c(N=C2NCCN2)ccc2[nH]cnc12` [Compound 2, reference compound] the “miotic efficacy compared with brimonidine” value (pupil diameter) was “much less than brimonidine”.

With `Cc1c(N=C2NCCN2)ccc2[nH]cnc12` [Compound 1] the “hyperemia reduction on digital redness scale compared with LUMIFY” value (ocular hyperemia; 0.03% composition, FIG. 3) was “performed better than LUMIFY®”, the “time post treatment of significant reduction in hyperemia” value (ocular hyperemia; 0.03% composition, FIG. 3) was at most 1 min and the “efficacy on ocular hyperemia compared with LUMIFY” value (ocular hyperemia; 0.03% composition, single eye drop (~35 μl), FIG. 1 and FIG. 2) was “significantly greater efficacy on ocular hyperemia than LUMIFY®”. For the same molecule, the “reduction in the Modified Hackett-McDonald Score compared with LUMIFY” value (ocular hyperemia; score including hyperemia, discomfort, conjunctival swelling and discharge) was “greater reduction in the Modified Hackett-McDonal Score”, the “melanin binding (in words)” value [1] was “no significant melanin binding” and the “responder analysis of rabbits with >2.5 mm pupil change” value (pupil diameter; 0.1% w:v, n=6, scotopic condition (<10 lux), FIG. 7) was “more efficacious than brimonidine”. The “magnitude of pupil size reduction compared with brimonidine” value (pupil diameter; FIG. 7 and FIGS. 5 and 6) was “greater magnitude of pupil size reduction and therapeutic activity when compared to brimonidine”, the “pupil constriction over 9 hours” value (pupil diameter; FIG. 9) was “significant pupil constriction even at 9 hours after dosing” and the “effect on pupil constriction compared with Compound 3” value (pupil diameter; FIG. 10) was “greater effect on pupil constriction when compared to Compound 3”. The dose miotic response (pupil diameter; Scotopic condition (<10 lux), FIG. 6) was “very potent dose miotic response”, the “animals with greater than 2.5 mm reduction in pupil size from baseline” value (pupil diameter; [2]) was “more than half” and the “miotic effect compared with other alpha adrenergic receptor agonists including brimonidine” value (pupil diameter; rabbit, in vivo) was “best miotic effect”. For the same molecule, the “miotic action (peak pupil constriction and duration of action)” value (pupil diameter; room lighting conditions, FIG. 8) was “greater miotic action than brimonidine”, the “animals with greater than 2.5 mm reduction in pupil size from baseline” value (pupil diameter; two hours after dosing, 0.1% w:v, FIG. 7) was “virtually all animals” and the “onset of eye redness reduction” value (eye redness) was “more effective in reducing eye redness in quite a bit less than a minute and faster than the brimonidine composition”. The “whiteness of the eyes” value (eye redness; cosmetic use, both eyes) was “noticeably whiter”, the eye redness (eye redness; minor eye irritations, once or twice a day, a few weeks) was “no longer as red as they used to be” and the “rebound hyperemia, dependency, tachyphylaxis” value (eye redness; once or twice a day, a few weeks) was “has not observed any of the rebound hyperemia, dependency, or tachyphylaxis”. For the same molecule, the OSH score (eye redness; seasonal allergies, baseline +2, within the first day, scale of Table 2) was “+0.5”.
